Assay results as given in US8110601B2, “Compound, α1 adrenergic receptor antagonistic agent, and composition” (Suntory Holdings Limited, priority 2007, dated 2012).

What was measured:
[1] = target: T1, α1A receptor (Rattus norvegicus, UniProt P43140); assay: α1 adrenergic receptor binding test ([3H]prazosin displacement, rat salivary gland membrane homogenate); conditions: [3H]prazosin 0.06 nM as ligand; membrane homogenate of rat salivary gland; 22° C., 60 minutes; specimens 0.02-20 μM
T1 construct: the α1A receptors are present on a membrane of a rat salivary gland; from tissue; host or cells: rat salivary gland membrane homogenate
T1 sequence (P43140 1-466): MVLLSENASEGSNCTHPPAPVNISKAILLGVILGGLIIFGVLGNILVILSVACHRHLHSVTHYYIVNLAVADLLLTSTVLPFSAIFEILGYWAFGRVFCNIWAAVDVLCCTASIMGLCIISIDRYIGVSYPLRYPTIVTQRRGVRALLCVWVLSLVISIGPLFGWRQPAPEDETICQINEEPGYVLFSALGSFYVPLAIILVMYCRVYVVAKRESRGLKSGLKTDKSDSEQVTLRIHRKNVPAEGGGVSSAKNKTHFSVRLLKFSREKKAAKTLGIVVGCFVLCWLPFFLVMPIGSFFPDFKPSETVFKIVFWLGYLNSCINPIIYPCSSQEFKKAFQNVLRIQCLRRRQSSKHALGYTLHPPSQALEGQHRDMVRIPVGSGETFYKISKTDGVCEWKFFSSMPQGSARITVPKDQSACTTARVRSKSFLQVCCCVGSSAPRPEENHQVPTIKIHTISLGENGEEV
Experimental: The compound 19a synthesized in Examples above was weighed, to which 100% dimethylsulfoxide (DMSO) was added so as to prepare a solution at 10-fold of the final concentration. The solution was diluted with an assay buffer, to thereby prepare four types of specimens with different concentrations (0.02 μM, 0.2 μM, 2 μM, 20 μM). In addition, with respect to each of the compound 19b, the racemic mixture of the compounds 19a and 19b, and the racemic mixture of the compounds 20a and 20b, likewise, four types of specimens were prepared (see Mitchel, A. D. et al., (1989) Brt. J. Pharmacol., 98: 883-889).
Next, as the α1 adrenergic receptor, an α1A receptor (one of subtypes of the α1 adrenergic receptor) was used, and a binding ability to the α1A receptor was examined.
It has been known that the α1A receptors are present on a membrane of a rat salivary gland. To an assay buffer (250 μL) containing a membrane homogenate of a rat salivary gland (150 μg in terms of protein amount) were added the above-mentioned specimen and [^3H]prazosin (0.06 nM) as ligand, to thereby prepare a reaction liquid, which was then incubated at 22° C. for 60 minutes. After the incubation, the reaction liquid was subjected to suction filtration using a glass fiber filter (GF/B, manufactured by Packard) which had been washed with 0.3% PEI (polyethyleneimine), to terminate reaction. The glass fiber filter was washed with 50 mM Tris-HCl cooled with ice, washing being repeated several times. The glass fiber filter was dried, a scintillation cocktail (Microscint 0, manufactured by Packard) was added thereto, and residual radioactivity on the filter was measured using a liquid scintillation counter (Topcount, manufactured by Packard). An amount of specific binding of [^3H]prazosin was obtained by subtracting an amount of non-specific binding in the presence of phentolamine (10 μM) from a total binding amount of [^3H]prazosin.

[2] = tested on: α1 adrenergic receptor; assay: Rat tail artery constriction inhibition test; conditions: phenylephrine 10 μM, compound 1 μM, 100 μM in organ bath, other receptors blocked with antagonists
Experimental: Since the α1 adrenergic receptor antagonist has been known to have a vasoconstriction inhibition effect, the constriction inhibition effect of the compounds was examined using rat tail artery.
The compound 19a synthesized in Examples above was weighed, to which 100% dimethylsulfoxide (DMSO) was added so as to prepare a sample solution (stock solution) (concentration of the compound 19a: 100 mM). In addition, the compound 19b, the racemic mixture of the compounds 19a and 19b, and the racemic mixture of the compounds 20a and 20b were prepared likewise.
A tissue (rat tail artery) with an exposed endothelium was suspended in an organ bath filled with 20 mL of saline (NaCl: 118.0 mM, KCl: 4.7 mM, MgSO4: 1.2 mM, CaCl2: 2.5 mM, NaHCO3: 25 mM, glucose: 11.0 mM) (pH7.4) at 37° C., into which 95% oxygen/5% carbon dioxide had been fed. In the rat tail artery tissue, the α2 adrenergic receptor, β adrenergic receptor, histamine H1 receptor, muscarine receptor, and 5-HT2 receptor had been expressed like the α1 adrenergic receptor had, and in order to block the actions of these receptors, antagonistic agents (antagonists) for the respective receptor, i.e., yohimbine (1 μM), propranol (1 μM), pyrilamine (1 μM), atropine (1 μM), and methysergide (1 μM), were added.
In order to measure the contraction of the tissue caused by an action of the α1 adrenergic receptor, the tissue was connected to a force transducer which outputs a tension of the tissue as data. The tension in a static state was adjusted to become 1 g, and was maintained for 60 minutes (during that time period, the tissue was repeatedly washed with saline to readjust the tension). To the tissue was added 10 μM of a reference agonist (phenylephrine 1.0E-05M), and it was confirmed that the tissue responded in a normal manner. At the same time, there was recorded the tension (g) obtained by the contraction of the tissue caused by the action of the reference agonist. After confirming that the tissue responded in a normal manner, the reference agonist was washed out once, and the tissue was allowed to stand still for up to 15 minutes until the response returns to a static state (tension: 1 g).
After the response returned to the static state (tension: 1 g), the reference agonist was added so that the contraction rate of the tissue becomes 100%.
Next, the sample solution or a diluted solution thereof was added in such a manner that each of the concentrations of the compound 19a, the compound 19b, the racemic mixture of the compounds 19a and 19b, and the racemic mixture of the compounds 20a and 20b in the organ bath was increased in three stages (1 μM, 10 μM, 100 μM). Every time the concentration was increased, the tension was measured, and the contraction rate was calculated using the following equation. […]

Row | Compound | IC50 [1] [nM] | effect on contraction of rat tail artery caused by reference agonist (phenylephrine) [2]
1 | COC(=O)C1c2cc(C=CC(=O)NCCCCNC(=N)N)ccc2OC1c1ccc(O)cc1 (racemic) [racemic mixture of the compounds 19a and 19b, methyl-5-(1E)-[[4-(aminoiminomethyl)amino]butylamino]-3-oxo-1-propenyl]-2,3-dihydro-2-(4-hydroxyphenyl)-3-benzofurancarboxylate] | 2390 | suppressed a response in the reference agonist (phenylephrine) in a dosage-dependent manner
2 | N=C(N)NCCCCNC(=O)/C=C/c1ccc2c(c1)C(C(=O)O)C(c1ccc(O)cc1)O2 (racemic) [racemic mixture of the compounds 20a and 20b] | 1990 | suppressed a response in the reference agonist (phenylephrine) in a dosage-dependent manner
3 | COC(=O)[C@@H]1c2cc(/C=C/C(=O)NCCCCNC(=N)N)ccc2O[C@H]1c1ccc(O)cc1 [compound 19a] | 2030 | suppressed a response in the reference agonist (phenylephrine) in a dosage-dependent manner
4 | COC(=O)[C@H]1c2cc(/C=C/C(=O)NCCCCNC(=N)N)ccc2O[C@@H]1c1ccc(O)cc1 [compound 19b] | 610 | suppressed a response in the reference agonist (phenylephrine) in a dosage-dependent manner
